In patent US20260335238A1, “SPRAY-DRIED COMPOSITIONS COMPRISING CGRP RECEPTOR ANTAGONISTS” (OREXO AB, priority 2023, published 2026):

Experiment: Chemical stability of spray-dried zavegepant powder on storage, assay and % RS by HPLC/UV
Assay type: physicochemical
Conditions: zavegepant formulated as spray-dried powder, stored up to 6 months at 25/60 and 40/75
Method: The assay and purity, determined by HPLC/UV analysis, was 103.4% with a % RS of 1.46%.
Amounts of around 100 mg of the spray-dried powder from Example 2 above was dispensed into plastic DUMA containers placed in heat-sealed aluminium pouches together with a 4 Å molecular sieve desiccant. Two containers were placed inside a climate cabinet at 40 °C and 75% relative humidity (40/75) and two containers were placed inside a climate cabinet at 25 °C and 60% relative humidity (25/60).
The chemical stability of the drug substance after 6 months, with assay and total amounts of impurities and degradation products expressed as % RS, is summarized for the different climates in Table 3 below, in which NA means ‘not analysed’.

chemical stability (observed changes in % RS): surprisingly good
Structure (SMILES): Cc1cc(C[C@@H](NC(=O)N2CCC(c3cc4ccccc4[nH]c3=O)CC2)C(=O)N2CCN(C3CCN(C)CC3)CC2)cc2cn[nH]c12 [zavegepant]
